In patent US6511959B1, “Use of calcium-activated neutral protease (CANP) inhibitors in pharmaceutical preparations” (Norsk Hydro AS, priority 1991, dated 2003):
Square brackets hold non-standard residues; d marks the D form. Peptide text beside a SMILES is read from it. Nle = CCCC[C@H](N)C(=O)O

Key:
[1] = tested on: human NHIK 3025 cervix carcinoma cells; experiment: Cell survival (colony formation) of cervix carcinoma cells; type: cell-based; conditions: 24 hours treatment, colonies scored after 12 to 14 days
Description: Human cells of the established line […], originating from a cervical carcinoma in situ (Nordbye, K. and Oftebro, R., 1969, Exp. Cell Res., 58:458 and Oftebro, R. and Nordbye, K., 1969, Exp. Cell Res., 58:459) were cultivated in medium Eagles minimum essential medium (MEM) supplemented with 10% fetal bovine serum and antibiotics. Cells were routinely grown as monolayers in tissue culture flasks. The cells were kept in continuous exponential growth by frequent reculturing every second or third day. During reculturing, as well as during experiments, the cells were kept in humidified CO2 incubators at 37° C.
In the experiments represented in this example, the proteinaceous CANP inhibitor was additionally purified by gel filtration chromatography.
Cell survival studies were performed by adding inhibitors to exponentially growing, asynchronous cells 2 hours after seeding the cells into plastic Petri dishes at known cell densities. The inhibitor treatment period was 24 hours after which the dishes were rinsed with warm (37° C.) Hanks' balanced salt solution and fresh medium without inhibitor, was added. After 12 to 14 days of incubation (with a medium shift on day 7) colonies of cells were fixed in ethanol and stained with methylene blue. Only colonies containing more than 40 cells were scored as survivors. The percent cell survival is calculated relative to untreated, control dishes.

P-cells = experiment: Cytological changes of cell cultures in continuous presence of the inhibitors; type: cell-based, human; conditions: continuous presence 72 and 120 h, 2 mg/ml trypsin-chymotrypsin inhibitor, 1 mg/ml aprotinin, leupeptin or E64
Method: (§1) a) Cytological Changes of Cell Cultures in Continuous Presence of the Inhibitors
(§2) The following samples were made up in RPMI-1640 complete medium:
(§3) 2. 2 mg/ml trypsin-chymotrypsin inhibitor
(§4) 6. all five inhibitors at the above mentioned concentrations
(§5) 7. RPMI-1640 medium with no inhibitor addition to serve as a control medium.
(§6) Ten glass Petri dishes (5 cm diameter) were seeded each with 1×10^6 M-cells and another ten dishes were seeded each with 1×10^6 P-cells. Duplicate cell cultures received each type of complete medium containing the inhibitors and control cultures received only complete medium. The cell cultures were incubated at 37° C. in a humidified CO2-incubator for 120 hours. The culture medium was changed with fresh medium containing the same inhibitors at 24 and 72 hours after start of the experiment. Half of the cell cultures were fixed in 50% ethanol 72 hours and the other half 120 hours after initiation of the experiment. All cell cultures were stained according to the Papanicolaou method.

M-cells = experiment: as above; type: cell-based, human; conditions: continuous presence 72 and 120 h, 2 mg/ml trypsin-chymotrypsin inhibitor, 1 mg/ml aprotinin, leupeptin or E64
Method: as §1, §2, §3, §4, §5, §6

Walker rat tumors = experiment: Calpain inhibitor I and II on growth of Walker rat tumors in vivo; design: species or system Wistar rats; conditions: liposomal, 27 mg/100 g rat daily i.p.
Method: Male Wistar rats were injected with 10×10^6 Walker tumor cells per rat at the inguinal region. Treatment was started when measurable tumors appeared. Each treatment group consisted of 5 rats. […] Rats were treated with 2 ml liposomal solution of inhibitors at a concentration of 13.5 mg/ml, equivalent to 27 mg/100 g rat, daily by intraperitoneal injection. Rats in the control group received daily injections of saline-filled liposomes. Tumor volume was determined by measuring two diameters with calipers. The data is presented in FIG. 3 in which each data point represents the mean±S.E. tumor volume measurements for 5 rats.

| Compound | cytotoxic effect (cell survival, FIG. 1) [1] | effect on growth or cytology compared to control cell cultures (P-cells) | effect on growth or cytology compared to control cell cultures (M-cells) | tumor regression (Walker rat tumors; 5 doses) | anticancer effect (tumor volume, FIG. 3) (Walker rat tumors) |
| --- | --- | --- | --- | --- | --- |
| CC(C)C[C@H](NC(=O)[C@H]1O[C@@H]1C(=O)O)C(=O)NCCCCN=C(N)N (relative stereo) [E64, L-trans-3-carboxy-oxiran-2-carbonyl-L-leucylagmatine] | little cytotoxic effect | did not affect the growth or cytology | did not affect the growth or cytology |  |  |
| CCCC[C@@H](C=O)NC(=O)[C@H](CC(C)C)NC(=O)[C@H](CC(C)C)NC(C)=O [calpain inhibitor I, N-Acetyl-Leu-Leu-Norleucinal] (Ac-Leu-Leu-[Nle]-aldehyde) |  |  |  | approximately 92% |  |
| CSCC[C@@H](C=O)NC(=O)[C@H](CC(C)C)NC(=O)[C@H](CC(C)C)NC(C)=O [calpain inhibitor II, N-Acetyl-Leu-Leu-Methioninal] (Ac-Leu-Leu-Met-aldehyde) | slightly greater cytotoxicity than aprotinin |  |  |  | anticancer effect from the fourth dose |
| CC(=O)N[C@@H](CC(C)C)C(=O)N[C@@H](CC(C)C)C(=O)N[C@H](C=O)CCCNC(=N)N [leupeptin, N-acetyl-L-leucyl-L-leucyl-L-arginal] | little cytotoxic effect | did not affect the growth or cytology | did not affect the growth or cytology |  |  |
| aprotinin |  | did not affect the growth or cytology | did not affect the growth or cytology |  |  |
